row,SMILES,melting point [°C]
1,CCCc1nc(-c2cccnc2)cnc1NN,162 to 163
2,C=CCOc1ccc(S(=O)(=O)c2ccc(C)nc2Nc2c(C)cc(C)cc2C)cc1,138 to 140
3,CCOC(=O)CC(=O)C=CNc1cc(C)no1,93 to 95
4,Clc1cccc(C2CCN(CCCCOc3ccc4scnc4c3)CC2)c1Cl,79 to 81
5,Cc1cnc2c(Br)c(NC3=NCCN3)ccc2n1,260
6,CC(O)C(C)(C)NC(N)=S (centres undefined),148 to 151
7,CC(C)c1ccccc1-n1c(=O)[nH]c2c(C(N)=O)nc(-c3ccc(-c4nc[nH]n4)cc3)nc21,368
8,CC(=O)c1ccc(OCCNC(=O)OCc2ccccc2)cc1,80 to 81
9,COc1cc2cnn(CCCCl)c(=O)c2cc1OC,185 to 187
10,CC(C)(C)NC(=O)[C@@H]1C[C@H](Cl)CN1C(=O)[C@@H](O)[C@H](Cc1ccccc1)NC(=O)[C@H](CC(N)=O)NC(=O)OC(C)(C)C,126 to 132
11,Cc1ccccc1CN(c1ncnc2c1ncn2C1OC(CO)C(O)C1O)C1CCCCC1 (centres undefined),129 to 130
12,CC(=O)Nc1nc(CCc2ccc(CCl)cc2)c(Cc2ccc(S(C)(=O)=O)cc2)s1,202 to 203
13,CC1c2ccccc2-c2ccccc2N1S(=O)(=O)c1ccc(O)c(CO)c1 (centres undefined),182 to 184
14,CC(=O)N[C@@H](c1ccccc1)[C@@H](O)C(=O)OC(C)C,104 to 106
15,CCNc1nc2ccc(CCc3ncc[nH]3)cc2o1,204 to 206
16,Cc1ccc2c(c1)nnn2C(=O)N(c1ccccc1)c1ccccc1,132 to 133
17,OC1c2cc(OCc3ccc4ccccc4n3)ccc2OCCC1Oc1cccnc1 (centres undefined),134 to 136
18,COc1cc(Nc2nccc(-c3ccc(N4CC[C@@H](N(C)C)C4)nc3)n2)cc(OC)c1OC,150 to 151
19,NC(=O)c1cccc(-c2ccc(F)c3cc(Cc4cccc(C(F)(F)F)c4)sc23)c1,139 to 140
20,O=C(O)c1ccc(C(c2cc(F)ccc2F)S(=O)(=O)c2ccc(Cl)cc2)nc1 (centres undefined),> 230
21,CCCCCCCCCCCCCCCCOCCOCCOC(=O)NCc1ccccn1,57 to 59
22,N#CC1(CCCCCCCCCCCCC2(C(=O)O)CC2)CC1,44.4 to 46.9

row,SMILES,melting point [°C]
1,CS(=O)(=O)c1ccc(-c2cnn(Cc3ccccc3)c(=O)c2Cl)cc1,166 to 167
2,COc1ccc(-c2csc(Nc3cc4ccccc4cn3)n2)cc1,224 to 228
3,COc1cc2c(N)nc(Cl)nc2c(OC)c1OC,244 to 245
4,Fc1ccc(C2(Cn3ncnc3S)OC2c2ccccc2Cl)cc1 (centres undefined),179 to 180
5,Nc1nc2ccccc2c2c1ncn2CCOCC#Cc1ccccc1,196 to 197
6,CCCC=Cn1c2ccccc2c2ccccc21,47
7,COC(=O)c1cccnc1C(=O)CC(=O)c1ccccc1,87
8,CC(=O)Oc1cc(OC(C)=O)cc(OC(C)=O)c1,105 to 106
9,CCCCCCCCOc1ccc(C(=O)Oc2ccc(C3CCC(O)CC3)cc2)cc1 (centres undefined),111 to 112
10,CCc1nc(C2CC2)c(C(=O)O)n1Cc1ccc2oc(-c3ccccc3-c3nnn[nH]3)c(Br)c2c1,198
11,CCCNC(=O)N(CCC(=O)OC)CC1CC2c3cccc4[nH]cc(c34)CC2N(C)C1 (centres undefined),130 to 132
12,CCCCN(CCCC)c1ccc2cc(Cl)cnc2c1C#N,112
13,COc1cc(CCN(C)Cc2ccc(OC)c(OC)c2)ccc1NC(=O)c1cccc2c(=O)c3cccc(F)c3[nH]c12,161 to 162
14,O=[N+]([O-])c1cn2c(n1)OC(COc1ccc(-c3csc(Cc4ccc(OC(F)(F)F)cc4)n3)cc1)CC2 (centres undefined),222 to 224
15,NC(=O)C1CN1C(=O)Oc1ccccc1 (centres undefined),140 to 142
16,Cc1cccc2c(-c3ccc(Cl)cc3)nccc12,122 to 124
17,O=C(NC1(C(=O)O)CC1)OCCOC(=O)c1ccccc1,174 to 176
18,Nc1nc(NCc2ccccc2)nc(-c2cc(Cl)ccc2Cl)n1,200 to 201
19,COc1c(C)c(OC(=O)c2c(C)c(C)c(OCCCOc3ccc(F)cc3)c(C)c2OC)c(C)c(C)c1C(N)=O,146 to 149
20,CC(C)c1cnc(NC(=O)Cc2csc(N)n2)s1,201 to 203
21,CCCCNC(=O)N(C)c1cccc(-c2ccc(C=C(OC)C(=O)O)cc2OCCCC)c1,106
22,Cc1nc(-n2ccc(OCCC3CC3)cc2=O)sc1C(=O)NCc1ccc(F)cc1,172 to 174

row,SMILES,melting point [°C]
1,CCCCCCCCC1C=CC(/C=C(\C)c2ccc(C(=O)O)o2)=C2N=C3CCCCC3=C21 (centres undefined),160 to 162
2,CC1(C)OC[C@H](CCOc2c(C(C)(C)C)cc(SC(C)(C)Sc3cc(C(C)(C)C)c(O)c(C(C)(C)C)c3)cc2C(C)(C)C)O1,44 to 46
3,CCCc1cc(Cl)c2oc(Cc3ccc(OC)cc3)c(C)c2c1OC(=O)OCC,99 to 100
4,COc1cc(/C=C(\C(=O)NCCCCCC(=O)NO)c2ccc(F)cc2)cc(OC)c1,104 to 105
5,COCc1nnc(-c2cccnc2)n1-c1c(Cl)c(Cl)cc2[nH]c(=O)c(=O)[nH]c12,222 to 224
6,CCn1c(=O)c2c(nc(/C=C/c3ccc(C)cc3)n2C)n(CC)c1=O,171 to 172
7,O=C(CCl)c1cccnn1,104 to 106
8,CCOC(=O)c1cc(N(C)C)ncn1,40 to 42
9,Cc1cccc2[nH]c(Nc3ccc(C(=O)O)cc3)nc12,375 to 378
10,Cc1ccc(NC(=O)NCC(=O)N(CC(=O)OC(C)(C)C)c2ccccc2C(=O)c2ccccc2)cc1,182 to 183
11,CCCn1c(=O)c2c(NC(C)=O)n[nH]c2n(Cc2ccccc2)c1=O,108 to 110
12,CN1Cc2c(C(=O)OC(C)(C)C)ncn2-c2ccncc2C1=O,214 to 215
13,COc1ccc2c(c1)N(CCCN1CCC(CCO)CC1)c1cccc(SC)c1S2,101 to 103
14,COc1ccc(C(=CC(=O)N2CCOCC2)c2ccc(NC(=O)c3ccc(Cl)cc3)cc2)cc1OC,197 to 207
15,CCCC(=NO)c1ccc(C(=O)O)cn1,203 to 205
16,C=CCn1c(=O)c(C(=O)OCC)c(N)c2cccnc21,161 to 164
17,CCCCCCCCCCCCCCOc1ccc2c(C)c(C(=O)O)oc2c1,105 to 108
18,O=C(NC(=O)c1c(Cl)cccc1Cl)Nc1ccc(OC(F)(F)F)cc1,202
19,Cc1noc(-c2cc3c4ccccc4n(C)c3s2)n1,200 to 201
20,C=CCNC(=O)ON=C1SCOC1C (centres undefined),66 to 67.5
21,Cc1ccc(C(C)(O)P(O)O)cc1 (centres undefined),115
22,O=C(NC1CCC(CCN2CCN(c3nccc4c3CCO4)CC2)CC1)C(O)C(F)(F)F (racemic),204

# Second part, the molecule after the results:
row,melting point [°C],SMILES
1,110 to 112,COC(=O)c1ccc(OCC2CC(=O)N(c3ccc(C)cc3)C2)cc1 (centres undefined)
2,105 to 106,O=c1cc(SCc2ccccc2)cco1
3,196 to 197,Cc1cn(C)c2cc(NC(=O)c3ccc(C(C)(C)O)cc3)ncc12
4,157 to 159,CCOC(=O)c1cccc(/C=C/C(=O)c2cc(O)ccc2[N+](=O)[O-])c1
5,161 to 163,O=C1NCCC[C@@H]1NS(=O)(=O)c1ccccc1C(F)(F)F
6,220 to 222,COC(=O)C1(CC(N)=O)C(=O)N(C)C(=O)c2ccc(Cl)cc21 (centres undefined)
7,295 to 297,NS(=O)(=O)c1cc2cc[nH]c(=O)c2s1
8,79 to 80,Cc1nc2c(cc1CO)CCCCC2
9,165 to 166,COc1cc(C(=O)Nc2c(Cl)cncc2Cl)cc2c1oc1ccccc12
10,179 to 183,CCCN(CCN1CCN(c2ccc3[nH]ccc3c2)CC1)C1CCc2ccc(O)cc2C1 (centres undefined)
11,155 to 156,O=C(C=Cc1ccc(OCc2ccccc2)c([N+](=O)[O-])c1)N1CCCCC1
12,282,CCOC(=O)c1nc(S)n2c1c(=O)n(C)c1cc(C(F)(F)F)ccc12
13,140,CC(=O)NC[C@H]1CN(c2cccc(F)c2)C(=O)O1
14,249 to 251,O=C1CCCC2=C1C(c1cccc(F)c1)C1=C(CCCC1)N2 (centres undefined)
15,94,CCC1CCc2c(sc3cc(OCc4ccccc4)ccc3c2=O)C1 (centres undefined)
16,156 to 157,COC(=O)c1csc(NC(=O)C(CC2CCCC2)c2ccc(Cl)cc2)n1 (centres undefined)
17,154 to 168,CC(=O)c1ccc(O)c(CC#N)c1
18,185 to 187,O=C1CCc2cc(O)ccc21
19,96 to 98,COC(=O)C(=O)CC(=O)c1ccc(C2CCCCC2)cc1

row,melting point [°C],SMILES
1,209 to 210,COc1cc(C2=NNC(=O)CC2)ccc1O
2,193 to 195,Cc1ccc2c(CC(=O)O)c(C(=O)c3ccc(Cl)cc3)[nH]c2c1
3,149 to 151,COCc1cc2c(cc1O)CCC1C2CCC2(C)C(=O)CCC12 (centres undefined)
4,184 to 186,CCCCC(=O)NCc1ccc2c(c1)C(=O)N(C1CCC(=O)NC1=O)C2=O (centres undefined)
5,220 to 221,CC1Cc2cc3c(cc2C(c2ccc([N+](=O)[O-])cc2)=NN1C1=NC(=O)CCS1)OCO3 (centres undefined)
6,174 to 176,Cc1c(O)ccc(-c2ccc(C#N)cc2)c1C
7,194 to 196,COc1ccc(C2=NNC(=O)Cc3cc4c(cc32)OCO4)cc1
8,178 to 181,CC(C)c1cc(Oc2c(Cl)cc(CP(=O)(O)O)cc2Cl)ccc1O
9,147 to 149,CCOC(=O)c1ccc(NC(=O)C(C)C)c(N)c1
10,107 to 108,Cc1ccc(-c2cnn(C)c2)cc1
11,85,COC(=O)COc1ccc(C(=O)c2cccs2)c2c1CCCC2
12,144 to 148,COC1(C=CCOc2ccc3c(-c4ccc(F)cc4)c4c(cc3c2)C(=O)OC4)CCOCC1
13,260 to 263,CNC(=O)c1cn(C)c2cc(Cl)ccc2c1=O
14,194 to 196,Cc1ccc(-c2nc(=O)c3ccccc3s2)n1C
15,121 to 122,Cc1ccccc1CC1CNC(=O)O1 (centres undefined)
16,223,Cc1nnsc1C(=O)Nc1ccccc1C(=O)O
17,112 to 113,CCCNS(=O)(=O)c1nc2ccc(OCC)cc2s1
18,92.5 to 94,O=C(c1ccccc1)C(Cl)(Cl)C1CCCCC1
19,111 to 112,O=C(O)Cc1cc(Br)c2c(c1)CCC(C(F)(F)F)N2 (centres undefined)
